In patent US20100152434A1, “Protein Kinase-binding Nucleosides and Associated Methods” (priority 2007, published 2010):

Assays:
[1] = system: UO-31; conditions: single dose (10 μM)
[2] = system: RXF 393; conditions: RXF393; single dose (10 μM)
[3] = system: LOX IMVI; conditions: single dose (10 μM)
[4] = system: HOP-92; conditions: single dose (10 μM)
[5] = system: MOLT-4; conditions: single dose (10 μM)

With `CNC(=O)NC[C@H]1O[C@@H](n2cnc3c(NC(=O)Nc4ccccc4)ncnc32)C2OC(=O)C[C@H]21` (some centres unmarked) [Compound 33, 3′-(Carboxymethyl)-3′,5′-dideoxy-5′-[(N-methylcarbamoyl)amino]-N^6-(N-phenylcarbamoyl)adenosine-2′,3′-lactone] the “anticancer activity (GI)” value [1] was “potent and selective anticancer activities”, the “anticancer activity (GI)” value [2] was “potent and selective anticancer activities” and the “anticancer activity (GI)” value [3] was “potent and selective anticancer activities”. The “anticancer activity (GI)” value [4] was “potent and selective anticancer activities” and the “anticancer activity (GI)” value [5] was “potent and selective anticancer activities”.
